Reference: PubChem BioAssay (NCI)
Where “and” joins values, the source holds several entries; their conditions need not be identical. Equal entries are not always repeated.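 Growth conditions: 96-well plates. Treatment: test compound, 48 hours, 5 concentrations. Analysis: linear interpolation between bracketing concentrations; unreached endpoints set to highest concentration. Abbreviation: GI50, concentration required for 50% inhibition of growth. TGI marks complete inhibition of growth.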

Legend:
Assay in all cases: NCI tumour cell line growth inhibition, 48 h
786-0 renal = system: 786-0 renal
ACHN renal = system: ACHN renal
CCRF-CEM leukemia = system: CCRF-CEM leukemia
COLO 205 colon = system: COLO 205 colon
DLD-1 colon = system: DLD-1 colon
DMS 114 small cell lung = system: DMS 114 small cell lung
DMS 273 small cell lung = system: DMS 273 small cell lung
EKVX NSCLC = system: EKVX NSCLC
HCC-2998 colon = system: HCC-2998 colon
HCT-116 colon = system: HCT-116 colon
HCT-15 colon = system: HCT-15 colon
HL-60(TB) leukemia = system: HL-60(TB) leukemia
HOP-18 NSCLC = system: HOP-18 NSCLC
HOP-92 NSCLC = system: HOP-92 NSCLC
HT29 colon = system: HT29 colon
IGROV1 ovarian = system: IGROV1 ovarian
K-562 leukemia = system: K-562 leukemia
KM12 colon = system: KM12 colon
KM20L2 colon = system: KM20L2 colon
LOX IMVI melanoma = system: LOX IMVI melanoma
LXFL 529 NSCLC = system: LXFL 529 NSCLC
M14 melanoma = system: M14 melanoma
M19-MEL melanoma = system: M19-MEL melanoma
MALME-3M melanoma = system: MALME-3M melanoma
MOLT-4 leukemia = system: MOLT-4 leukemia
NCI-H226 lung = system: NCI-H226 lung
NCI-H23 lung = system: NCI-H23 lung
NCI-H460 lung = system: NCI-H460 lung
NCI-H522 lung = system: NCI-H522 lung
OVCAR-3 ovarian = system: OVCAR-3 ovarian
OVCAR-5 ovarian = system: OVCAR-5 ovarian
OVCAR-8 ovarian = system: OVCAR-8 ovarian
RPMI-8226 leukemia = system: RPMI-8226 leukemia
RXF 393 renal = system: RXF 393 renal
RXF-631 renal = system: RXF-631 renal
SF-268 CNS = system: SF-268 CNS
SF-295 CNS = system: SF-295 CNS
SF-539 CNS = system: SF-539 CNS
SK-MEL-2 melanoma = system: SK-MEL-2 melanoma
SK-MEL-5 melanoma = system: SK-MEL-5 melanoma
SK-OV-3 ovarian = system: SK-OV-3 ovarian
SN12C renal = system: SN12C renal
SNB-19 CNS = system: SNB-19 CNS
SNB-75 CNS = system: SNB-75 CNS
SNB-78 CNS = system: SNB-78 CNS
SR leukemia = system: SR leukemia
SW-620 colon = system: SW-620 colon
TK-10 renal = system: TK-10 renal
U251 CNS = system: U251 CNS
UACC-257 melanoma = system: UACC-257 melanoma
UACC-62 melanoma = system: UACC-62 melanoma
UO-31 renal = system: UO-31 renal
XF 498 CNS = system: XF 498 CNS
A498 renal = system: A498 renal
A549 NSCLC = system: A549 NSCLC
CAKI-1 renal = system: CAKI-1 renal
HOP-62 NSCLC = system: HOP-62 NSCLC
MCF7 breast = system: MCF7 breast
NCI/ADR-RES ovarian = system: NCI/ADR-RES ovarian
OVCAR-4 ovarian = system: OVCAR-4 ovarian
P388 leukemia = system: P388 leukemia
P388/ADR leukemia = system: P388/ADR leukemia
SK-MEL-28 melanoma = system: SK-MEL-28 melanoma
SN12K1 renal = system: SN12K1 renal

## O=C1[C@@H]2C3c4ccccc4C([C@@H]2C(=O)N1c1ccccc1)S3(=O)=O
786-0 renal
  TGI: > 100000 nM
ACHN renal
  TGI: > 100000 nM
CCRF-CEM leukemia
  TGI: > 100000 nM
COLO 205 colon
  TGI: > 100000 nM
DLD-1 colon
  TGI: > 100000 nM
DMS 114 small cell lung
  TGI: > 100000 nM
DMS 273 small cell lung
  TGI: > 100000 nM
EKVX NSCLC
  TGI: > 100000 nM
HCC-2998 colon
  TGI: > 100000 nM
HCT-116 colon
  TGI: > 100000 nM
HCT-15 colon
  TGI: > 100000 nM
HL-60(TB) leukemia
  TGI: > 100000 nM
HOP-18 NSCLC
  TGI: > 100000 nM
HOP-92 NSCLC
  TGI: > 100000 nM
HT29 colon
  TGI: > 100000 nM
IGROV1 ovarian
  TGI: > 100000 nM
K-562 leukemia
  TGI: > 100000 nM
KM12 colon
  TGI: > 100000 nM
KM20L2 colon
  TGI: > 100000 nM
LOX IMVI melanoma
  TGI: > 100000 nM
LXFL 529 NSCLC
  TGI: > 100000 nM
M14 melanoma
  TGI: > 100000 nM
M19-MEL melanoma
  TGI: > 100000 nM
MALME-3M melanoma
  TGI: > 100000 nM
MOLT-4 leukemia
  TGI: > 100000 nM
NCI-H226 lung
  TGI: > 100000 nM
NCI-H23 lung
  TGI: > 100000 nM
NCI-H460 lung
  TGI: > 100000 nM
NCI-H522 lung
  TGI: > 100000 nM
OVCAR-3 ovarian
  TGI: > 100000 nM
OVCAR-5 ovarian
  TGI: > 100000 nM
OVCAR-8 ovarian
  TGI: > 100000 nM
RPMI-8226 leukemia
  TGI: > 100000 nM
RXF 393 renal
  TGI: > 100000 nM
RXF-631 renal
  TGI: > 100000 nM
SF-268 CNS
  TGI: > 100000 nM
SF-295 CNS
  TGI: > 100000 nM
SF-539 CNS
  TGI: > 100000 nM
SK-MEL-2 melanoma
  TGI: > 100000 nM
SK-MEL-5 melanoma
  TGI: > 100000 nM
SK-OV-3 ovarian
  TGI: > 100000 nM
SN12C renal
  TGI: > 100000 nM
SNB-19 CNS
  TGI: > 100000 nM
SNB-75 CNS
  TGI: > 100000 nM
SNB-78 CNS
  TGI: > 100000 nM
SR leukemia
  TGI: > 100000 nM
SW-620 colon
  TGI: > 100000 nM
TK-10 renal
  TGI: > 100000 nM
U251 CNS
  TGI: > 100000 nM
UACC-257 melanoma
  TGI: > 100000 nM
UACC-62 melanoma
  TGI: > 100000 nM
UO-31 renal
  TGI: > 100000 nM
XF 498 CNS
  TGI: > 100000 nM

## CC12CCC3C(CCC4=CC(O)CCC43C=O)C1(O)CCC2c1ccc(=O)oc1 (centres undefined)
A498 renal
  GI50: 50 nM
  TGI: 41.8 nM and 113 nM
A549 NSCLC
  GI50: 4.52 nM
  TGI: 20 nM
CAKI-1 renal
  GI50: 8 nM
  TGI: 62.7 nM
CCRF-CEM leukemia
  GI50: 11.5 nM and 50 nM
  TGI: 129 nM and 523 nM
COLO 205 colon
  GI50: 50 nM
  TGI: 59.6 nM and 90.9 nM
DLD-1 colon
  GI50: 7.69 nM
  TGI: 57.1 nM
DMS 114 small cell lung
  TGI: 9.96 nM
DMS 273 small cell lung
  TGI: 22.8 nM
EKVX NSCLC
  TGI: 59 nM
HCC-2998 colon
  GI50: 59.1 nM
  TGI: 66.5 nM and 220 nM
HCT-116 colon
  GI50: 4.53 nM
  TGI: 32.7 nM and 58.3 nM
HCT-15 colon
  GI50: 12.5 nM
  TGI: 107 nM and 62.2 nM
HL-60(TB) leukemia
  GI50: 50 nM
HOP-18 NSCLC
  TGI: 46.1 nM
HOP-62 NSCLC
  GI50: 1.58 nM
  TGI: 14.7 nM and 57.3 nM
HOP-92 NSCLC
  TGI: 40.4 nM
HT29 colon
  GI50: 66.7 nM
IGROV1 ovarian
  GI50: 50 nM
  TGI: 93.6 nM and 141 nM
K-562 leukemia
  GI50: 27.4 nM
  TGI: 247 nM and 143 nM
KM12 colon
  GI50: 50 nM
  TGI: 93.5 nM and 83.2 nM
KM20L2 colon
  GI50: 50 nM
  TGI: 36.5 nM and 56.2 nM
LOX IMVI melanoma
  GI50: 50 nM
M19-MEL melanoma
  GI50: 50 nM
  TGI: 72 nM and 61 nM
MCF7 breast
  GI50: 4.03 nM
  TGI: 20.9 nM and 72.1 nM
MOLT-4 leukemia
  GI50: 12.9 nM
  TGI: 40.1 nM
NCI-H226 lung
  GI50: 86.6 nM
  TGI: 83.1 nM and 210 nM
NCI-H23 lung
  TGI: 15.1 nM
NCI-H460 lung
  TGI: 13.1 nM
NCI-H522 lung
  TGI: 7.41 nM
NCI/ADR-RES ovarian
  GI50: 50 nM
  TGI: 196 nM and 53.3 nM
OVCAR-3 ovarian
  TGI: 15.3 nM
OVCAR-4 ovarian
  TGI: 25.3 nM
OVCAR-5 ovarian
  GI50: 5.11 nM
OVCAR-8 ovarian
  GI50: 50 nM
  TGI: 53.2 nM and 52.6 nM
P388 leukemia
  GI50: 80600 nM
P388/ADR leukemia
  GI50: 89000 nM
RPMI-8226 leukemia
  GI50: 23.8 nM
  TGI: 237 nM and 273 nM
RXF 393 renal
  GI50: 1.27 nM
  TGI: 8.01 nM
SF-268 CNS
  GI50: 1.53 nM
  TGI: 15.4 nM
SF-295 CNS
  GI50: 50 nM
  TGI: 46.6 nM and 107 nM
SF-539 CNS
  GI50: 50 nM
  TGI: 11.5 nM and 51.5 nM
SK-MEL-2 melanoma
  GI50: 50 nM
  TGI: 48.3 nM and 81.5 nM
SK-MEL-28 melanoma
  GI50: 7.66 nM
  TGI: 140 nM and 104 nM
SK-MEL-5 melanoma
  TGI: 20.1 nM
SK-OV-3 ovarian
  GI50: 50 nM
  TGI: 40.4 nM and 71.3 nM
SN12C renal
  GI50: 50 nM
SN12K1 renal
  GI50: 7.53 nM
  TGI: 28.6 nM and 53.1 nM
SNB-19 CNS
  GI50: 50 nM
  TGI: 22.4 nM and 101 nM
SNB-75 CNS
  GI50: 50 nM
  TGI: 54.4 nM and 52.3 nM
SNB-78 CNS
  GI50: 50 nM
  TGI: 202 nM and 63.5 nM
SW-620 colon
  GI50: 9.09 nM
  TGI: 96.7 nM and 62 nM
U251 CNS
  GI50: 50 nM
  TGI: 29.2 nM and 64 nM
UACC-257 melanoma
  GI50: 50 nM
UACC-62 melanoma
  GI50: 9.32 nM
  TGI: 32.9 nM and 52.1 nM
UO-31 renal
  GI50: 50 nM
  TGI: 127 nM and 57 nM
